Experimental findings from US11825838B2, “Tricyclic carboxamides for controlling arthropods” (Bayer CropScience Aktiengesellschaft, priority 2017, dated 2023) are described below.

Assay type in all cases: in vivo
Experiment [1] deals with Aedes aegypti strain MONHEIM. In words: Aedes test (AEDSAE surface treatment). The settings on record: application rate 100 mg/m^2, glazed tile, exposure 30 minutes, 24 hours after contact, read-out: efficacy (mortality). On the procedure: Aedes Test (AEDSAE Surface Treatment)
(§1) Solvent: acetone+2000 ppm rapeseed oil methyl ester (RME)
To produce a suitable active compound formulation, the active compound is dissolved in the solvent (2 mg/ml). The active compound formulation is pipetted onto a glazed tile and, after it has dried off, adult mosquitoes of the species Aedes aegypti strain MONHEIM are placed onto the treated tile. The exposure time is 30 minutes.
(§2) 24 hours after contact with the treated surface, mortality in % is determined. 100% means that all mosquitoes have been killed; 0% means that none of the mosquitoes have been killed.

Experiment [2] concerns Anopheles gambiae strain RSPH (homozygot kdr). In words: Anopheles test (ANPHGB surface treatment). Particulars: application rate 100 mg/m^2, glazed tile, exposure 30 minutes, 24 hours after contact, read-out: efficacy (mortality). On the procedure:
Anopheles Test (ANPHGB Surface Treatment)
as §1
To produce a suitable active compound formulation, the active compound is dissolved in the solvent (2 mg/ml). The active compound formulation is pipetted onto a glazed tile and, after it has dried off, adult mosquitoes of the species Anopheles gambiae strain RSPH (homozygot kdr) are placed onto the treated tile. The exposure time is 30 minutes.
as §2

In experiment [3] the test system is Anopheles funestus strain FUMOZ-R. The experiment can be described thus: Anopheles test (ANPHFU surface treatment). The settings on record: application rate 100 mg/m^2, glazed tile, exposure 30 minutes, 24 hours after contact, read-out: efficacy (mortality). On the procedure: Anopheles Test (ANPHFU Surface Treatment)
as §1
To produce a suitable active compound formulation, the active compound is dissolved in the solvent (2 mg/ml). The active compound formulation is pipetted onto a glazed tile and, after it has dried off, adult mosquitoes of the species Anopheles funestus strain FUMOZ-R (Hunt et al., Med Vet Entomol. 2005 September; 19(3):271-5) are placed onto the treated tile. The exposure time is 30 minutes.
as §2

Experiment [4] has as its system Spodoptera frugiperda. The experiment can be described thus: Spodoptera frugiperda spray test (SPODFR). The settings on record: Spodoptera frugiperda, 168 h; application rate 100 g/ha, spray, after 7 days; read-out: efficacy. On the procedure: Spodoptera frugiperda—Spray Test
(§3) To produce a suitable active ingredient formulation, 1 part by weight of active ingredient is dissolved with the specified parts by weight of solvent and made up to the desired concentration with water containing an emulsifier concentration of 1000 ppm. To produce further test concentrations, the formulation is diluted with emulsifier-containing water.
Leaf discs of maize (Zea mays) are sprayed with an active ingredient formulation of the desired concentration and, after drying, populated with caterpillars of the armyworm (Spodoptera frugiperda).
After 7 days, the efficacy in % is determined. 100% means that all the caterpillars have been killed; 0% means that no caterpillar has been killed.
Spodoptera frugiperda—Spray Test (SPODFR)
(§4) To produce a suitable active compound formulation, 1 part by weight of active compound is dissolved with the specified parts by weight of solvent and made up to the desired concentration with water containing an emulsifier concentration of 1000 ppm. To produce further test concentrations, the formulation is diluted with emulsifier-containing water.
Leaf discs of maize (Zea mays) are sprayed with an active compound formulation of the desired concentration and, after drying, populated with caterpillars of the armyworm (Spodoptera frugiperda).
After the desired time, the efficacy in % is determined. 100% means that all the caterpillars have been killed; 0% means that no caterpillar has been killed.

The test system of experiment [5] is Phaedon cochleariae. The experiment can be described thus: Phaedon cochleariae spray test (PHAECO). Particulars: Phaedon cochleariae, 168 h; application rate 100 g/ha, spray, after 7 days; read-out: efficacy. On the procedure:
Phaedon cochleariae—Spray Test
as §3
After 7 days, the efficacy in % is determined. 100% means that all the beetle larvae have been killed; 0% means that no beetle larvae have been killed.
Phaedon cochleariae—Spray Test (PHAECO)
as §4
Discs of Chinese cabbage leaves (Brassica pekinensis) are sprayed with an active compound formulation of the desired concentration and, after drying, populated with larvae of the mustard beetle (Phaedon cochleariae).
After the desired time, the efficacy in % is determined. 100% means that all the beetle larvae have been killed; 0% means that no beetle larvae have been killed.

Experiment [6] has as its system Lucilia cuprina. The experiment can be described thus: Lucilia cuprina test. The settings on record: application rate 100 ppm, L1 larvae, after 2 days. On the procedure: (§5) Solvent: dimethyl sulfoxide
(§6) To produce a suitable active ingredient formulation, 10 mg of active ingredient are mixed with 0.5 ml of dimethyl sulfoxide, and the concentrate is diluted with water to the desired concentration.
About 20 L1 larvae of the Australian sheep blowfly (Lucilia cuprina) are transferred into a test vessel containing minced horsemeat and the active compound preparation of the desired concentration.
After 2 days, the rate of extermination in % is determined. 100% means that all the larvae have been killed; 0% means that no larvae have been killed.

For experiment [7], the system named is Boophilus microplus. The experiment can be described thus: Boophilus microplus injection test. The settings on record: application rate 20 μg/animal, assessed after 7 days by laying of fertile eggs. On the procedure: Boophilus microplus—Injection Test
as §5
To produce a suitable active compound preparation, 10 mg of active compound are mixed with 0.5 ml of solvent and the concentrate is diluted to the desired concentration with solvent.
1 μl of the active ingredient solution is injected into the abdomen of 5 engorged adult female cattle ticks (Boophilus microplus). The animals are transferred into dishes and kept in a climate-controlled room.
Efficacy is assessed after 7 days by laying of fertile eggs. Eggs which are not visibly fertile are stored in a climate-controlled cabinet until the larvae hatch after about 42 days. An efficacy of 100% means that none of the ticks has laid any fertile eggs; 0% means that all the eggs are fertile.

Experiment [8] concerns Ctenocephalides felis. The experiment can be described thus: Ctenocephalides felis oral test. The settings on record: application rate 100 ppm in citrated cattle blood, after 2 days. On the procedure:
Ctenocephalides felis—Oral Test
as §5
To produce a suitable active ingredient formulation, 10 mg of active ingredient are mixed with 0.5 ml of dimethyl sulfoxide. Dilution with citrated cattle blood gives the desired concentration.
About 20 unfed adult cat fleas (Ctenocephalides felis) are placed into a chamber which is closed at the top and bottom with gauze. A metal cylinder whose bottom end is closed with parafilm is placed onto the chamber. The cylinder contains the blood/active ingredient formulation, which can be imbibed by the fleas through the parafilm membrane.
After 2 days, the rate of extermination in % is determined. 100% means that all of the fleas have been killed; 0% means that none of the fleas have been killed.

Experiment [9] relates to Musca domestica. The experiment can be described thus: Musca domestica test. Particulars: application rate 100 ppm, adult houseflies, after 2 days. On the procedure:
as §5, §6
Vessels containing a sponge treated with sugar solution and the active ingredient formulation of the desired concentration are populated with 10 adult houseflies (Musca domestica).
After 2 days, the rate of extermination in % is determined. 100% means that all of the flies have been killed; 0% means that none of the flies have been killed.

In experiment [10] the test system is Tetranychus urticae. The experiment can be described thus: Tetranychus urticae spray test, OP-resistant (TETRUR). The settings on record: spray, after 6 days. On the procedure: Tetranychus urticae—Spray Test, OP-Resistant
as §3
Discs of bean leaves (Phaseolus vulgaris) infested with all stages of the greenhouse red spider mite (Tetranychus urticae) are sprayed with an active compound preparation of the desired concentration.
After 6 days, the efficacy in % is determined. 100% means that all the spider mites have been killed; 0% means that no spider mites have been killed.
Tetranychus urticae—Spray Test; OP-Resistant (TETRUR)
as §4
Discs of bean leaves (Phaseolus vulgaris) infested with all stages of the greenhouse red spider mite (Tetranychus urticae) are sprayed with an active compound formulation of the desired concentration.
After the desired time, the efficacy in % is determined. 100% means that all the spider mites have been killed; 0% means that no spider mites have been killed.

Each structure is given as a SMILES string.

Take `Cn1c(C(=O)NC2CC2)cc(-c2cnn(-c3c(Cl)cc(C(F)(C(F)(F)F)C(F)(F)F)cc3Cl)c2)c1Cl` [I-T1-9, 5-chloro-N-cyclopropyl-4-{1-[2,6-dichloro-4-(1,1,1,2,3,3,3-heptafluoropropan-2-yl)phenyl]-1H-pyrazol-4-yl}-1-methyl-1H-pyrrole-2-carboxamide]: the mortality at 100 mg/m2 in [1], in experiment [2] and in experiment [3] was 80 to 100% throughout. In addition, the pest or weed control at 100 g/ha in [4] and in experiment [5] was 100% throughout.

`N#CC1(NC(=O)c2csc(-c3cnn(-c4c(Cl)cc(C(F)(C(F)(F)F)C(F)(F)F)cc4Cl)c3)c2)CC1` [I-T1-13, N-(1-cyanocyclopropyl)-5-{1-[2,6-dichloro-4-(1,1,1,2,3,3,3-heptafluoropropan-2-yl)phenyl]-1H-pyrazol-4-yl}thiophene-3-carboxamide]: the mortality (commonly the share of the test organisms that died) at 100 mg/m2 in [1] lay within 80 to 100%. Besides, the “efficacy (rate of extermination)” value in experiment [6], in experiment [8] and in experiment [9] was 100% in each case. In addition, the efficacy in experiment [7] came out at 100%; in experiment [10] (application rate 20 g/ha), 90%; in experiment [10] (application rate 100 g/ha) it was 100%. Further, the pest or weed control at 100 g/ha in experiment [4] and in experiment [5] was 100% in each case.
